Data on 1 molecule can be found in patent US10813981B2, “Saposin B binds the lipofuscin bisretinoid A2E and prevents its enzymatic and photo degradation” (Syracuse University, priority 2017, dated 2020).

One test deals with T1, SapB (Homo sapiens, UniProt P07602).
T1 construct: made in house; host or cells: E. coli
T1 sequence (P07602 195-273 limits assumed): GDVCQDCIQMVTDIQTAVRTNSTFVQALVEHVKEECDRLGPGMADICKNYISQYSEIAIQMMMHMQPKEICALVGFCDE
Description: Fluorescence quenching titration of SapB with ligand (double logarithmic Stern-Volmer analysis). It counts as binding. On the procedure:
A2E and SapB were prepared and purified according to literature reports. To determine the A2E/protein binding stoichiometry, a fluorescence titration was carried out by incrementally adding small amounts of A2E to a solution of SapB (FIG. 2). […] A double logarithmic plot of
Fluorescence quenching measurements were performed on a Varian Cary Eclipse fluorimeter equipped with a QNW Peltier temperature controller. The experiments were conducted at 25.00±0.01° C. in 50 mM phosphate buffer, pH 5.50 or 7.40 using 278 nm excitation wavelength for sapB emission spectra at 325 nm (FIG. 2) or 444 nm excitation for A2E emission at 602 nm (FIG. 3) with excitation and emission monochromators bandwidth of 5 nm each. The fluorescence quenching data were analyzed using OriginLab software version 8.
The interaction of SapB (prepared as described above) with a variety of ligands was followed by monitoring the quenching of the fluorescence intensities of the protein's tyrosine residues upon binding (FIG. 12 Panels a-f).
For each ligand tested 40 μM SapB in 50 mM phosphate buffer at pH 5.5 was titrated with ligand and quenching was monitored at the fluorescence maxima at 330 nm. […] All of the fluorescence data were analyzed by a double logarithmic Stern-Volmer plot, shown for all ligands, using the emission maxima to determine binding affinity, presented in Table 3, and using the following equation
Materials and Methods—Saposin B (SapB) was prepared and purified as described above. Briefly, SapB solutions in this study were prepared in 50 mM phosphate buffer, pH 5.5. […] Ligand solutions were prepared in 100% dimethylformamide (DMF) to a concentration of 2 mM, with the exception of hydoxychloroquine (HCQ), which was prepared in 50 mM phosphate buffer, pH 5.5. […] 4.2. Fluorescence Spectroscopy. Fluorescence quenching measurements were performed on a Varian Cary Eclipse fluorimeter equipped with a QNW Peltier temperature controller. The binding experiments were conducted at 25.00±0.01° C. in 50 mM phosphate buffer, pH 5.5, using 278 nm excitation wavelength for SapB emission spectra at 330 nm (FIG. 1a-f) with excitation and emission monochromators bandwidth of 5 nm each. Temperature sensitive binding experiments were performed between 20.00±0.01 and 40.00±0.01° C. using 278 nm excitation wavelength for SapB emission spectra at 331 nm, with excitation and emission monochromators bandwidth of 5 nm each. The fluorescence quenching data were analyzed using OriginLab software version 8.

The next test addresses T2, HRP (Armoracia rusticana, UniProt P00433).
T2 sequence (P00433 31-338): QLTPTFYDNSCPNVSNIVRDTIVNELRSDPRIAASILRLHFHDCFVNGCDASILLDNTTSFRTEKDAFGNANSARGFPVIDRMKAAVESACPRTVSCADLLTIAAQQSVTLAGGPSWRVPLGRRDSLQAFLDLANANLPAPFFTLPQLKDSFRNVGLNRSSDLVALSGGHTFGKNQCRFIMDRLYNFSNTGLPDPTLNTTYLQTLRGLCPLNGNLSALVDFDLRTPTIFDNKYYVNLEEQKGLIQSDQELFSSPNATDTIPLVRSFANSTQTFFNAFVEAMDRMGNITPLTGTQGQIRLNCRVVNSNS
Nature of the test: A2E degradation by HRP/H2O2, absorbance kinetics at 340 nm. Format: biochemical. The text has this: Horseradish peroxidase (HRP) is reported to cleave the bis-retinoid A2E. Thus, the ability of SapB to protect A2E from oxidative transformations by HRP was investigated.
In classic peroxidases, it is believed that reaction with hydrogen peroxide gives rise to two oxidizing equivalents (i.e. a porphyrin radical-cation and an Fe(IV)-oxo (ferryl) species) due to exposure of the prosthetic heme group to the bulk solution. […] Having established the presence of two different binding sites on SapB (one for A2E and one for CoQ10), the ability of SapB to protect A2E in the presence of CoQ10 was tested.
Conventional ultraviolet visible spectroscopy was performed on a Varian Cary 50 Bio spectrophotometer from Agilent Technologies. The stock solutions of various reagents were prepared as follow: HRP in DI water, A2E in DMSO, SapB in 50 mM phosphate buffer, pH 5.5, CoQ10 in THF (tetrahydrofurane) and 3% H2O2 solution diluted in DI water from an initial stock at 30%. The 340 nm kinetic experiments were monitored every 5 minutes for a total of 400 min following the sequential addition of all reagents as indicated in FIG. 4. The HRP solution of FIG. 5 was prepared in 20 mM phosphate buffer, 1% tween, pH 5.5, 25° C. All concentrations given in the figure caption are final concentrations following mixing of the reagents. The spectrophotometric data were further analyzed with OriginLab software version 8.

In test [1] the target is T3, retinoid isomerohydrolase (RPE65 isomerohydrolase) (Homo sapiens, UniProt Q16518).
T3 sequence (Q16518 1-533): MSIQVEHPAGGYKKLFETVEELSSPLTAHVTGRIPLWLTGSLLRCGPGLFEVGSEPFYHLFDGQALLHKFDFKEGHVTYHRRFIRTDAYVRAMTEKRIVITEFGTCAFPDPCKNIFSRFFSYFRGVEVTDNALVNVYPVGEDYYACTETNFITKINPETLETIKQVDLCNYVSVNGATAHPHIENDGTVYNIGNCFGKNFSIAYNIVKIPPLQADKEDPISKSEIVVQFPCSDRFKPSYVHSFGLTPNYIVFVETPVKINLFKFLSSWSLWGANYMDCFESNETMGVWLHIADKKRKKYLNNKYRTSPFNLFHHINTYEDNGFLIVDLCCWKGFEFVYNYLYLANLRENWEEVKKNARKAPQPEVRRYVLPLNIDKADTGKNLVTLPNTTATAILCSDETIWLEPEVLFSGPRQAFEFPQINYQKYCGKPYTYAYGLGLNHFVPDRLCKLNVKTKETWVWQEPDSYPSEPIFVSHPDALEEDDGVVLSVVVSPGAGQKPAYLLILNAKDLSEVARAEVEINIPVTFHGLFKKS
To be noted: non-palmitoylated, soluble, cytoplasmic RPE65; read-out: KD, direct binding to RPE65; cited from earlier work.

Test [2] concerns retinoic acid receptor (RAR). The note with it: cited from earlier work.

One may read the Kd as the concentration at which binding is half-saturated. On to `CC(C=CC1=C(C)CCCC1(C)C)=CC=CC(C)=Cc1cc(C=CC=C(C)C=CC2=C(C)CCCC2(C)C)cc[n+]1CCO` [A2E, N-retinylidene-N-retinylethanolamine], for which the “binding stoichiometry from double logarithmic plot” value on SapB is given as around 1 A2E per SapB dimer. In addition, the “LogKA of binding by SapB” value at SapB (40 μM SapB, 50 mM phosphate buffer pH 5.5, average of three runs) is 4.680. The “binding affinity (KA), A2E to SapB” value on SapB (double logarithmic plot, 50 mM phosphate buffer pH 5.5, 25° C.) is around 4e+06 M⁻¹. Also, the dissociation constant Kd was 25 µM at SapB (read-out: KD, SapB binds A2E) and 0.25 µM in test [1]. Also, the “binding stoichiometry, discontinuity of fluorescence quenching at 308 nm” value at SapB (titration of SapB with A2E) is recorded as around 0.5 A2E/protein. Moreover, at HRP (2:1 SapB:A2E ratio, + HRP + H2O2), the “absorbance change at 340 nm, A2E pre-complexed with SapB” value is “very similar to that of a control mixture of HRP and H2O2”. Besides, the “absorbance, sequences (SapB+A2E)complex+CoQ10+HRP+H2O2 or (SapB+CoQ10)complex+A2E+HRP+H2O2” value on HRP (SapB and CoQ10 present) is reported as “absorbance values similar to the sequence (SapB+A2E)complex+HRP+H2O2”. Further, the “damage to A2E, sequence (SapB+HRP)complex+A2E+H2O2” value at HRP (SapB pre-complexed with HRP) is “partial damage”. Besides, on HRP (free A2E), the “absorbance of A2E at 340 nm after H2O2 added to A2E containing HRP” value was “decrease in the absorbance value”. Besides, in test [2], the “ligand activity at RAR” value is reported as “endogenous ligand”.
